Experimental data taken from patent US20130143297A1, “STABILIZED LIQUID TENSIDE P[…]” (Henkel AG & Co. KGaA, priority 2010, published 2013).

Test system: variant F49 of the protease from Bacillus lentus
Assay: Residual proteolytic activity after storage in liquid washing agent (suc-AAPF-pNA)
Assay type: biochemical
Conditions: 13 days at 30° C., initial activity = 100%
From the text: A liquid washing agent of the following composition served as a baseline washing agent formulation (all indications in percent by weight): 0.3 to 0.5% xanthan, 0.2 to 0.4% antifoaming agent, 6 to 7% glycerol, 0.3 to 0.5% ethanol, 4 to 7% FAEOS (fatty alcohol ether sulfate), 24 to 28% nonionic surfactants, 1 to 2% sodium citrate (dihydrate), 2 to 4% soda, 14 to 16% coconut fatty acids, 0.5% HEDP (1-hydroxyethane-(1,1-diphosphonic acid)), 0 to 0.4% PVP (polyvinylpyrrolidone), 0 to 0.05% optical brightener, 0 to 0.001% dye, remainder demineralized water.
The aminophthalic acid 4-aminophthalic acid (Alfa Aesar) was incorporated into this formulation as the component stabilizing the hydrolytic enzyme, as indicated below (see Table 1, indications in this regard in wt %). Comparison formulations that contained either boric acid as an enzyme stabilizer, or no enzyme stabilizer, served as controls. The protease used was variant F49 of the protease from Bacillus lentus in accordance with WO 95/23221 (quantity used: 1 wt % active substance).
After storage, the respective residual proteolytic activity was determined by way of the release of the para-nitroaniline (pNA) chromophore from the suc-L-Ala-L-Ala-L-Pro-L-Phe-p-nitroanilide substrate (suc-AAPF-pNA). The protease cleaves the substrate and releases pNA. The release of pNA causes an increase in extinction at 410 nm, the time course of which is an indication of enzymatic activity (see Del Mar et al., 1979). Measurement occurred at a temperature of 25° C., at pH 8.6 and at a wavelength of 410 nm. The measurement time was 5 min, with a measurement interval from 20 s to 60 s. The proteolytic activity values obtained are indicated in Table 1 below, based on an initial activity of 100% when storage began.

[1] = 1.0 wt % stabilizer in baseline liquid washing agent

SMILES	residual proteolytic activity after storage (0.1 wt % stabilizer in baseline liquid washing agent)	residual proteolytic activity after storage (0.5 wt % stabilizer in baseline liquid washing agent)	residual proteolytic activity after storage [1]	residual proteolytic activity after storage (2.0 wt % stabilizer in baseline liquid washing agent)
Nc1ccc(C(=O)O)c(C(=O)O)c1 [4-aminophthalic acid]	28.3%	33.3%	40.8%	50.0%
OB(O)O [boric acid, reference compound]	–	–	74.9%	–
